Test [1] relates to Staphylococcus aureus. Kind of test: Antibacterial activity against methicillin-resistant Staphylococcus aureus ATCC 33592 assessed as reduction in visible bacterial growth incubated for 18 to 20 hrs by CLSI based broth microdilution analysis. The test is classed as functional. Particulars: time 18-20 hrs.
For test [2], the system named is Staphylococcus aureus. Nature of the test: Synergistic antibiofilm activity against methicillin-resistant Staphylococcus aureus USA 300 in TSB broth assessed as dispersal of glucose-induced biofilm at 1 ug/ml preincubated with glucose for 48 hrs followed by compound addition and further incubated for 24 hrs in presence of Nitroxoline by crystal violet staining based assay. Format: functional. As to conditions: dose 1 µg/ml.

Test [3] has as its system Cell membrane. Kind of test: Induction of cell membrane disruption in Staphylococcus aureus ATCC 25923 assessed as appearance of hairy protrusions at 2 ug/ml incubated for 30 mins by SEM analysis. As to conditions: dose 2.0 µg/ml. The test is classed as subcellular.
The test system of test [4] is Enterococcus faecium. Kind of test: Synergistic antibiofilm activity against vancomycin-resistant Enterococcus faecium ATCC 700221 in TSB broth assessed as dispersal of glucose-induced biofilm by measuring fractional inhibitory concentration index preincubated with glucose for 48 hrs followed by compound addition and further incubated for 24 hrs in presence of Nitroxoline by crystal violet staining based checkerboard assay. Format: functional.

The subject of test [5] is Enterococcus faecalis. Nature of the test: Synergistic antibiofilm activity against vancomycin-resistant Enterococcus faecalis ATCC 51575 in TSB broth assessed as dispersal of glucose-induced biofilm by measuring fractional inhibitory concentration index preincubated with glucose for 48 hrs followed by compound addition and further incubated for 24 hrs in presence of Bithionol by crystal violet staining based checkerboard assay. The test is classed as functional.

In test [6] the test system is Enterococcus faecium. Kind of test: Synergistic antibiofilm activity against vancomycin-resistant Enterococcus faecium ATCC 700221 in TSB broth assessed as dispersal of glucose-induced biofilm at 1 ug/ml preincubated with glucose for 48 hrs followed by compound addition and further incubated for 24 hrs in presence of 1 ug/ml Bithionol and AgNO3 by crystal violet staining based analysis. Particulars: dose 1 µg/ml. Format: functional.

Test [7] has as its system Cell membrane. Nature of the test: Induction of membrane depolarization in Staphylococcus aureus ATCC 25923 at 2 ug/ml incubated for 1 hr by DiOC23 dye based flow cytometry analysis. Format: subcellular. As to conditions: dose 2.0 µg/ml.
The test system of test [8] is Staphylococcus aureus. Nature of the test: Synergistic antibiofilm activity against methicillin-resistant Staphylococcus aureus USA 300 in TSB broth assessed as dispersal of glucose-induced biofilm at 4 ug/ml preincubated with glucose for 48 hrs followed by compound addition and further incubated for 24 hrs in presence of Bithionol by crystal violet staining based assay. As to conditions: dose 4 µg/ml. The test is classed as functional.

In test [9] the test system is Enterococcus faecium. Kind of test: Synergistic antibiofilm activity against vancomycin-resistant Enterococcus faecium ATCC 700221 in TSB broth assessed as dispersal of glucose-induced biofilm at 2 ug/ml preincubated with glucose for 48 hrs followed by compound addition and further incubated for 24 hrs in presence of 0.5 ug/ml Bithionol and AgNO3 by crystal violet staining based analysis. Format: functional. Particulars: dose 2 µg/ml.

The test system of test [10] is Enterococcus faecalis. Nature of the test: Antibacterial activity against Enterococcus faecalis ATCC 29212 assessed as reduction in visible bacterial growth incubated for 18 to 20 hrs by CLSI based broth microdilution analysis. The test is classed as functional. As to conditions: time 18-20 hrs.
In test [11] the test system is Staphylococcus aureus. Nature of the test: Bactericidal activity against persister methicillin-resistant Staphylococcus aureus ATCC 33592 at 1 times MIC incubated for 8 hrs by time kill assay. The test is classed as functional.

Each structure is given as a SMILES string. Values after ≈ are worked out from the molar mass of the structure shown. Active and inactive are the calls of the source. The rule behind the calls is not given here.

With `Oc1ccc([C@@H]2Nc3ccc(S(F)(F)(F)(F)F)cc3[C@H]3[C@@H]4CC[C@@H](C4)[C@H]32)cc1`, the values for the MBC in the test on Staphylococcus aureus [1] and in the test on Enterococcus faecalis [10] were 1 µg/mL (≈ 2.4 µM) and 2 µg/mL (≈ 4.79 µM), respectively. Further, the MIC with Staphylococcus aureus [1] and in the test with Enterococcus faecalis [10] was 2 µg/mL (≈ 4.79 µM) in each case. For the same compound, the Activity with Staphylococcus aureus [2] is more than 80%; in the test with Enterococcus faecium [6], more than 70%; in the test with Staphylococcus aureus [8], more than 80%; in the test on Enterococcus faecium [9] it was more than 70%; with Staphylococcus aureus [11], 100%. Besides, the outcome with Cell membrane [3] and in the test on Cell membrane [7] was Active. Further, the “fractional inhibitory concentration index (FICI)” value came to 0.16 with Enterococcus faecium [4] and 0.5 with Enterococcus faecalis [5].

Values taken from ChEMBL document CHEMBL5113477, “Membrane acting Povarov-Doebner derived compounds potently disperse preformed multidrug resistant Gram-positive bacterial biofilms” (Eur J Med Chem, 2022).
